Source: patent US6794491B1, “Polypeptides, their production and use” (Takeda Chemical Industries, Ltd., priority 1995, dated 2004)
Where no end group is shown, it is not given here.

Assays:
[1] = blood pressure after injection into the area postrema of medula oblongata; format: in vivo, male Wistar rats; settings: 10 nmol into the area postrema of medula oblongata, conscious rats
Method: The inventors explored the influence of injection of 19P2-L31 into the area postrema of medula oblongata on blood pressure. Mature male Wistar rats (body weights at operation: ca 300 g) were anesthetized with pentobarbital 50 mg/kg i.p. and each animal was immobilized in a rat brain stereotaxic apparatus. The incisor bar was lowered by 3.3 mm from the interaural line. The skull was exposed, and using a dental drill a hole was made on the skull for implantation of a guide cannula. In addition, anchor screws were buried in two positions around the drilled hole. A stainless-steel guide cannula, AG-12 (0.4 mm inside dia., 0.5 mm out. dia., EICOM), was inserted in such a manner that its leading end would be situated in the upper part of the area postrema. […] With reference to the atlas of Paxinos and Watson (1986), the stereotaxic coordinates were AP: −6.0 mm (from interaural line), L: 0.0 mm, and H: +1.5 mm (from interaural line). […]
After waiting overnight postoperatively, the polyethylene tube was connected to a transducer (Spectramed) and the blood pressure was measured. After blood pressure readings became steady, the cap nut and dummy cannula were removed from the rat skull and, instead, a stainless steel microinjection cannula (0.17 mm in. dia., 0.35 mm out. dia., EICOM) connected to a Teflon tube (50 cm long, 0.1 mm in. dia., 0.4 mm out. dia., EICOM) was inserted. […]

[2] = plasma pituitary hormone level after administration into the third ventricle, pentobarbital anesthesia; format: in vivo, male Wistar rats
Method: The inventors explored the effect of 19P2-L31 administered into the third ventricle on pituitary hormone levels in the plasma. Mature male Wistar rats (body weights at operation: 290-350 g) were anesthetized with pentobarbital, 50 mg/kg i.p., and each immobilized in a rat brain stereotaxic apparatus. The incisor bar was set 3.3 mm lower from the interaural line. The skull was exposed, and using a dental drill a hole was made on the bone for implantation of a guide cannula. In addition, an anchor screw was buried in one position around the hole. A stainless-steel guide cannula, AG-12 (0.4 mm in. dia., 0.5 mm out. dia., EICOM), was inserted in such a manner that its tip would be situated in the upper part of the third ventricle. With reference to the atlas of Paxinos and Watson (1986), the stereotaxic coordinates were AP: +7.2 mm (from interaural line), L: 0.0 mm, and H: +2.0 mm (from interaural line). The guide cannula was secured to the skull using an instant adhesive, a dental cement, and an anchor piece. A stainless-steel dummy cannula, AD-12 (0.35 mm out. dia., EICOM), was then passed through the guide cannula and locked in position with a cap nut (EICOM). After the operation the rats were housed in individual cages and kept for at least 3 days for recuperation before starting the experiment.
The operated rat was anesthetized with pentobarbital 50 mg/kg i.p. and immobilized in dorsal position. After the bilateral jugular veins were exposed, 400 μl of blood was drawn using a 1 ml tuberculin syringe and a 24-G needle (both by Termo). To prevent clotting, the syringe was filled with 20 μl of saline containing 200 U/ml of heparin beforehand. The cap nut and dummy cannula were removed from the rat skull and, instead, a stainless steel microinjection cannula (0.17 mm in. dia., 0.35 mm out. dia., EICOM) connected to Teflon tube (50 cm long, 0.1 mm in. dia., 0.4 mm out. dia., EICOM) was inserted. The length of the microinjection cannula was adjusted beforehand so that its tip would be emergent from the guide cannula by 1 mm. One end of the Teflon tube was connected to a microsyringe pump and either PBS or 19P2-L31 dissolved in PBS was injected, in a total volume of 10 μl, into the third ventricle at a flow rate of 2.5 μl/min. After a standby time of 1 minute following infusion, the microinjection cannula was disconnected and the dummy cannula was reinstated and locked in position with a cap nut. Immediately before initiation of intraventricular administration and 10, 20, 30, 40, and 60 minutes after initiation of administration, 400 μl portions of blood were drawn from the jugular vein. Each blood sample was centrifuged (5,000 rpm, 10 min.) with a high-speed refrigerated microcentrifuge (MR-150, Tommy Seiko) and the supernatant (plasma) was recovered. The amounts of pituitary hormones [prolactin, luteinizing hormone (LH), adrenocorticotropic hormone (ACTH), thyroid-stimulating hormone (TSH), and growth hormone (GH)] in the plasma were respectively determined by radioimmunoassays.
The results were expressed as a mean±S.E.M. To test for significant difference between the group treated with 19P2-L31 dissolved in PBS and the control group treated with PBS alone, Student's t-test was used. According to the two-tailed test, p<0.05 was assumed to be the minimal level of significance.

[3] = 50 nmol into the third ventricle, anesthetized rats

Ser-Arg-Ala-His-Gln-His-Ser-Met-Glu-Ile-Arg-Thr-Pro-Asp-Ile-Asn-Pro-Ala-Trp-Tyr-Ala-Gly-Arg-Gly-Ile-Arg-Pro-Val-Gly-Arg-Phe-NH2 (SRAHQHSMEIRTPDINPAWYAGRGIRPVGRF-NH2) [19P2-L31, synthetic ligand polypeptide]
blood pressure [1]: caused an elevation of blood pressure | plasma ACTH [2, 3]: none showed significant changes | plasma LH [2, 3]: none showed significant changes | plasma TSH [2, 3]: none showed significant changes | plasma prolactin [2, 3]: none showed significant changes | plasma GH level ([2]; 50 nmol into the third ventricle, anesthetized rats, 10, 30, and 40 minutes after administration, not statistically significant): Tendencies toward decrease | plasma GH level ([2]; 50 nmol into the third ventricle, anesthetized rats, 20 minutes after administration, versus control): significantly decreased | plasma GH level ([2]; 50 nmol into the third ventricle, anesthetized rats, 60 minutes after administration): no difference from the control group | plasma growth hormone level ([2]; injected into the third ventricle of rats, summary): depressed
